Test [1] has as its system HAP deposited on spherules. Kind of test: In vitro drusen model: production of HAP-protein-lipid proto-spherules (fluorescence emission reflects HAP deposited). The class given is biochemical. From the text: (§1) An in vitro assay was designed to produce proto-spherule like those found in AMD drusen. HAP was detected with a specific fluorescent dye. This assay was used to discover inhibitors.
(§2) In Vitro Drusen Model: Production of HAP-Protein-Lipid Proto-Spherules
(§3) In this model, fluorescence emission reflected the amount of HAP deposited on spherules. The results are show in FIG. 1. […] Pyrophosphate (PPi) is a mineralization inhibitor and serves as negative control. There are many HAP-binding proteins but Vn is unique: it plays an active role in HAP mineralization.

In test [2] the target is T1, human blood protein vitronectin (Vn) (Homo sapiens, UniProt P04004).
T1 construct: made in house; host or cells: Escherichia coli
T1 sequence (P04004 20-478): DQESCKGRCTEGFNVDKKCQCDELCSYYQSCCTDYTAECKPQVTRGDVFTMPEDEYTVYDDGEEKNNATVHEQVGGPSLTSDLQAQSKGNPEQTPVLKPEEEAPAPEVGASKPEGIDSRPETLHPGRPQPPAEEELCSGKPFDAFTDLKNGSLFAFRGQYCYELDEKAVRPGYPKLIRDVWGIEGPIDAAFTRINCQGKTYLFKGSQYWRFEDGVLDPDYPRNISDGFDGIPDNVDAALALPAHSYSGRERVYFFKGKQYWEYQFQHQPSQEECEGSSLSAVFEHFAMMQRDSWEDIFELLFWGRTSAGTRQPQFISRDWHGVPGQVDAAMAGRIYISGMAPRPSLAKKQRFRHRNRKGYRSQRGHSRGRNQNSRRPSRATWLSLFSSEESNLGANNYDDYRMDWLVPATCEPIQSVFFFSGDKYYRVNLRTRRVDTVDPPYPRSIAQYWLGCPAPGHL
The experiment in a line: In vitro drusen model used to test Vn antibodies as inhibitors of Vn-dependent HAP deposition. Type of test: biochemical. Particulars: FIG. 2. The protocol: as §1
Vn was prepared from Escherichia coli. All buffer solutions were prepared with Milli-Q deionized water. For calcium-free preparations, the protein was folded by dropwise dilution from buffer T1 (20 mM Tris HCl pH 8, 6 M guanidine, 10 mM dithiothreitol) into buffer T2 (20 mM Tris HCl pH 8, 500 mM ArgCl, 300 mM NaCl, 5 mM β-mercaptoethanol, 1 mM hydroxyethyldisulfide), followed by dialysis into buffer MI (20 mM MES, pH 6.5, 300 mM NaCl) and size exclusion chromatography (Superdex 200 10/300 GL, GE Healthcare). Calcium-containing samples were prepared by supplementing buffer MI with CaCl2).
as §2, §3
This assay was used to test Vn antibodies (need details on Abc, Abm and Abn and IGF II) as potential inhibitors.

Turning to “Amyloid-β (Aβ): Amyloid-β, comparison protein in the in vitro drusen model [reference compound]”, the “effect on HAP deposition / mineralization on spherules (fluorescence emission)” value in test [1] (FIG. 1) is given as “no significant effect on HAP mineralization”.
In the case of “Vitronectin: human blood protein vitronectin, prepared from Escherichia coli”, the “effect on HAP deposition / mineralization on spherules (fluorescence emission)” value in test [1] (FIG. 1) was “increases HAP deposition on spherules in a dose-dependent and time-dependent manner”; in test [1] (FIG. 1, listed as Vn), “promotes HAP formation”. Besides, in test [2], the “effect on HAP deposition (fluorescence emission)” value is “promotes HAP deposition in a dose- and time-dependent manner”.

For the origin of these results see US20240342080A1, “COMPOSITIONS AND METHODS FOR INHIBITING HUMAN BLOOD PROTEIN VITRONECTIN” (Sanford Burnham Prebys Medical Discovery Institute, priority 2021, published 2024).
